The record followed here is patent US8604042B2, “Bi-aryl meta-pyrimidine inhibitors of kinases” (TargeGen, Inc., priority 2005, dated 2013).

Where a name gives a salt, the structure may show the parent alone. Read-outs that look alike come from different tables or passages of the source. Some results are limits rather than exact numbers.

A short description of series [1]: Ocular exposure after eye drop administration. It is filed as in vivo. Conditions: mouse, bilateral topical instillation of 0.1% formulation QDX1. On the procedure:
Exposure data of compounds at 0.1% via eye drop administration:
On topical dosing of compounds formulated as 0.1% doses in 0.2% tyloxapol/1% HPMC/4% Mannitol, exposure levels in found in back of the eye tissues of the mouse are shown at two different time points, namely at 2 h and at 7 h.

For series [2], the system named is HMC-1, a mast cell leukemia line (KITD816V-positive). Nature of the series: XTT cell proliferation assay, HMC-1. Format: cell-based. Conditions: for IC50: Homo sapiens, HMC1, XTT assay, read-out: Cellular IC50 HMC-1.
The subject of series [3] is EOL-1, a chronic eosinophilic leukemia (CEL) derived line (FIP1L1-PDFRA-positive). The series is described as follows: XTT cell proliferation assay, EOL-1. To be noted: for IC50: Homo sapiens, EOL1, XTT assay, read-out: Cellular IC50 EOL-1. It is filed as cell-based. (In general: Tetrazolium assays rely on reduction of a dye to a coloured formazan, in cell work by metabolically active cells.)

Series [4] deals with T1, Ba/F3 T674I (FIP1L1-PDFRA-T674I) (Homo sapiens, UniProt P16234, T674I, cells depend on it).
T1 construct: fused on or other part: Q6UN15 (Pre-mRNA 3'-end-processing factor FIP1)
T1 sequence (P16234 whole entry T674I, the tested form may be a part): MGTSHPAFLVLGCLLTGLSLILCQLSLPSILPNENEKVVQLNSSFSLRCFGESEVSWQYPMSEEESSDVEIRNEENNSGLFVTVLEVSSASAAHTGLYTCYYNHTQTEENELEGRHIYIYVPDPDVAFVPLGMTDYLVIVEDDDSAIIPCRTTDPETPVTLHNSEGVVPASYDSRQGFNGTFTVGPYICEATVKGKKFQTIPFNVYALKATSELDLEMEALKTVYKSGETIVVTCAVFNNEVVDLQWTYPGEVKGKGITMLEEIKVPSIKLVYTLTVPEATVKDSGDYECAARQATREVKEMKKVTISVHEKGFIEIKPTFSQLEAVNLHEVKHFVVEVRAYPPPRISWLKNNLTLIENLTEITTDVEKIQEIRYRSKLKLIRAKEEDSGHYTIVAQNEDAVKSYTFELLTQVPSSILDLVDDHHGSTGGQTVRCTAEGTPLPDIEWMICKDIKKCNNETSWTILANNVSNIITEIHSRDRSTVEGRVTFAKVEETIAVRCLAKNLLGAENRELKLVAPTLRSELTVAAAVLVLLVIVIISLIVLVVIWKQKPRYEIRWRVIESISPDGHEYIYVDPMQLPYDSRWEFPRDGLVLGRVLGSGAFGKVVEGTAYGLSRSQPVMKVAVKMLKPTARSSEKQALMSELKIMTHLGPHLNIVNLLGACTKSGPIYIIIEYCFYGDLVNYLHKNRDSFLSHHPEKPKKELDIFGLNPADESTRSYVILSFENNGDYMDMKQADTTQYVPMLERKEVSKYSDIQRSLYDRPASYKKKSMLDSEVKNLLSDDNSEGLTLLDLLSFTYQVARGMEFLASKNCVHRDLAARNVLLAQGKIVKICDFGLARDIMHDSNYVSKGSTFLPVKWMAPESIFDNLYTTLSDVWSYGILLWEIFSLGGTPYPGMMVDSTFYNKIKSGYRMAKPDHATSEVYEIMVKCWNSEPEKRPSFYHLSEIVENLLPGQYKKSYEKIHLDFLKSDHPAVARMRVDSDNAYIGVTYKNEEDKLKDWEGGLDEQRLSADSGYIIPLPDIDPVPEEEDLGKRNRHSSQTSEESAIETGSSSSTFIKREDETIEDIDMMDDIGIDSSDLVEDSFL
The series is described as follows: XTT cell proliferation assay, Ba/F3 T674I. It is filed as cell-based. Conditions: for GI50: XTT assay, read-out: Cellular IC50 Ba/F3 T674I.

The target in another series is T2, recombinant JAK2 (Homo sapiens, UniProt O60674).
T2 construct: purchased Upstate Cell Signaling Solutions
T2 sequence (O60674 808-1132 limits assumed): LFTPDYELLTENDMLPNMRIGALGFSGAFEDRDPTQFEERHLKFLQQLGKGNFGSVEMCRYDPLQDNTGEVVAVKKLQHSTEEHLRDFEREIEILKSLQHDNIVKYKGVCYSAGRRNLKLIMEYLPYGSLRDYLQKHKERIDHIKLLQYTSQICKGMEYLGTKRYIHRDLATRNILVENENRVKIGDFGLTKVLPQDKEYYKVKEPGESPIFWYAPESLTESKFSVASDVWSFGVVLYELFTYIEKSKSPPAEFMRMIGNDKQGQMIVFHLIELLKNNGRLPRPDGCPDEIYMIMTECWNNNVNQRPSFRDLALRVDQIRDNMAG
Nature of the series: IC50 value determinations for Jak2 kinase, luminescence-based kinase assay (Kinase-Glo). Format: biochemical. Conditions: Table 1. Background: In Kinase-Glo more light means more ATP remaining.

Where [5] appears, read: cornea, read-out: Concentration (nM) Cornea.
The mark [6] stands for this setting: retina, read-out: Concentration (nM) retina.
Where [7] appears, read: sclera/choroid, read-out: Concentration (nM) Sclera/choroid.

On to `Cc1cnc(Nc2ccc(N3CCN(C)CC3)cc2)nc1Nc1ccc(Cl)c2[nH]ccc12` [Compound LXXIV, N^4-(7-Chloro-1H-indol-4-yl)-5-methyl-N^2-(4-(4-methylpiperazin-1-yl)phenyl)pyrimidine-2,4-diamine], for which the concentration at 2 h came to 45000 nM in series [1] (setting [5]), 2120 nM in series [1] (setting [6]) and 6090 nM in series [1] (setting [7]). Moreover, the concentration at 7 h in series [1] (setting [5]) was determined as 21000 nM; in series [1] (setting [6]) it was 2150 nM; in series [1] (setting [7]), 7350 nM.

Regarding `COc1cc(Nc2nc(Nc3ccc(OC4CCNCC4)cc3)ncc2C)ccc1Cl` [Compound LXXXII, N^4-(4-Chloro-3-methoxy-phenyl)-5-methyl-N^2-[4-(piperidin-4-yloxy)-phenyl]-pyrimidine-2,4-diamine], the concentration at 2 h in series [1] (setting [5]) was determined as 69900 nM; in series [1] (setting [6]), 267 nM; in series [1] (setting [7]), 2340 nM. Further, the concentration at 7 h in series [1] (setting [5]) came out at 45400 nM; in series [1] (setting [6]), 592 nM; in series [1] (setting [7]) it was 2250 nM.

Regarding `COc1cc(Nc2nc(Nc3ccc(N4CCNCC4)cc3)ncc2C)ccc1Cl` [Compound XLIV, N^4-(4-Chloro-3-methoxy-phenyl)-5-methyl-N^2-(4-piperazin-1-yl-phenyl)-pyrimidine-2,4-diamine], the concentration at 2 h in series [1] (setting [5]) turned out to be 103000 nM; in series [1] (setting [6]), 406 nM; in series [1] (setting [7]), 4840 nM. For the same compound, the values for the concentration at 7 h in series [1] (setting [5]), in series [1] (setting [6]) and in series [1] (setting [7]) were 26600 nM, 321 nM and 3180 nM, respectively.

With `Cc1cnc(Nc2ccc(OCCN3CCCC3)cc2)nc1Nc1cccc2c1OCO2` [Compound XXXVI, N^4-Benzo[1,3]dioxol-4-yl-5-methyl-N^2-[4-(2-pyrrolidin-1-yl-ethoxy)-phenyl]-pyrimidine-2,4-diamine], the concentration at 2 h in series [1] (setting [5]) was found to be 7870 nM; in series [1] (setting [6]), 816 nM; in series [1] (setting [7]) it was 7250 nM. The concentration at 7 h turned out to be 18600 nM in series [1] (setting [5]), 11200 nM in series [1] (setting [6]) and 34800 nM in series [1] (setting [7]).

As a reminder, the IC50 is the concentration that inhibits the measured activity by half. In the case of `Cc1nc(Nc2ncc(C(=O)Nc3c(C)cccc3Cl)s2)cc(N2CCN(CCO)CC2)n1` [Dasatinib, dasatinib], the results for the IC50 in series [2] and in series [3] were 1300 nM and < 0.001 nM, respectively. In series [4], the GI50 came out at 30900 nM.

Take `Cc1ccc(NC(=O)c2ccc(CN3CCN(C)CC3)cc2)cc1Nc1nccc(-c2cccnc2)n1` [Imatinib, imatinib mesylate]: in series [3], the “concentrations inhibiting EOL-1 growth” value is “picomolar concentrations”.

Take `Cc1cnc(Nc2ccc(C[N+]3([O-])CCOCC3)cc2)nc1Nc1cccc(S(=O)(=O)NC(C)(C)C)c1` [N-tert-Butyl-3-{5-methyl-2-[4-(4-oxy-morpholin-4-ylmethyl)-phenylamino]-pyrimidin-4-ylamino}-benzenesulfonamide]: the IC50 on recombinant JAK2 came to 48.6 nM.

Consider `Cc1cnc(Nc2ccc(C(=O)N3CCOCC3)cc2)nc1Nc1cccc(S(=O)(=O)NC(C)(C)C)c1` [N-tert-Butyl-3-{5-methyl-2-[4-(morpholine-4-carbonyl)-phenylamino]-pyrimidin-4-ylamino}-benzenesulfonamide], for which the IC50 at recombinant JAK2 is 32.9 nM.

As for `Cc1cnc(Nc2ccc(C(=O)N3CCNCC3)cc2)nc1Nc1cccc(S(=O)(=O)NC(C)(C)C)c1` [N-tert-Butyl-3-{5-methyl-2-[4-(piperazine-1-carbonyl)-phenylamino]-pyrimidin-4-ylamino}-benzenesulfonamide], the IC50 at recombinant JAK2 turned out to be 69 nM.

Regarding `Cc1cnc(Nc2ccc(C(=O)N3CCCC3)cc2)nc1Nc1cccc(S(=O)(=O)NC(C)(C)C)c1` [N-tert-Butyl-3-{5-methyl-2-[4-(pyrrolidine-1-carbonyl)-phenylamino]-pyrimidin-4-ylamino}-benzenesulfonamide], the IC50 on recombinant JAK2 worked out at 33.5 nM.

Regarding `Cc1ccc(Nc2nc(Nc3ccc(-n4ccnc4)cc3)ncc2C)cc1S(=O)(=O)NC(C)(C)C` [N-tert-Butyl-5-[2-(4-imidazol-1-yl-phenylamino)-5-methyl-pyrimidin-4-ylamino]-2-methyl-benzenesulfonamide], at recombinant JAK2, the IC50 stood at 88.2 nM.

Take `Cc1cnc(Nc2ccc(CN3CCNCC3)cc2)nc1Nc1cccc(S(=O)(=O)NC(C)(C)C)c1` [N-tert-butyl-3-[(5-methyl-2-{[4-(piperazin-1-ylmethyl)phenyl]amino}pyrimidin-4-yl)amino]benzenesulfonamide]: at recombinant JAK2, the IC50 amounted to 4.6 nM.

In the case of `Cc1cnc(Nc2ccc(N3CCNCC3)c(C(F)(F)F)c2)nc1Nc1cccc(S(=O)(=O)NC(C)(C)C)c1` [N-tert-butyl-3-[(5-methyl-2-{[4-piperazin-1-yl-3-(trifluoromethyl)phenyl]amino}pyrimidin-4-yl)amino]benzenesulfonamide], at recombinant JAK2, the IC50 came to 22.5 nM.

For the compound `Cc1cnc(Nc2cccc(S(=O)(=O)N3CCN(C)CC3)c2)nc1Nc1cccc(S(=O)(=O)NC(C)(C)C)c1` [N-tert-butyl-3-{[5-methyl-2-({3-[(4-methylpiperazin-1-yl)sulfonyl]phenyl}amino)pyrimidin-4-yl]amino}benzenesulfonamide], the IC50 on recombinant JAK2 was 650 nM.

As for `CNC(=O)c1cc(Oc2ccc(NC(=O)Nc3ccc(Cl)c(C(F)(F)F)c3)cc2)ccn1` [Sorafenib], in series [2], the “sensitivity of HMC-1 growth” value is “only a limited effect” and the IC50 was found to be 4000 nM. Also, in series [3], the “concentrations inhibiting EOL-1 growth” value is recorded as “picomolar concentrations” and the IC50 is 0.002 nM. Further, in series [4], the “concentrations inhibiting growth of Ba/F3 cells harboring FIP1L1-PDFGRA-T674I” value was “nanomolar concentrations” and the GI50 was found to be 16 nM.

In the case of `COc1cc(Nc2nc(Nc3ccc(OCCN4CCCC4)cc3)ncc2C#N)c(Cl)cc1Cl` [drawing 298, 4-(2,4-Dichloro-5-methoxy-phenylamino)-2-[4-(2-pyrrolidin-1-yl-ethoxy)-phenylamino]-pyrimidine-5-carbonitrile], on recombinant JAK2, the IC50 stood at 6240 nM.

Turning to `COc1cc(Nc2nc(Nc3cccc(OCCN4CCCC4)c3)ncc2C#N)c(Cl)cc1Cl` [drawing 299, 4-(2,4-Dichloro-5-methoxy-phenylamino)-2-[3-(2-pyrrolidin-1-yl-ethoxy)-phenylamino]-pyrimidine-5-carbonitrile], at recombinant JAK2, the IC50 was 10500 nM.

Regarding `COc1cc(Nc2nc(Nc3cccc(OCCN4CCCC4)c3)ncc2C)c(Cl)cc1Cl` [drawing 300, N4-(2,4-Dichloro-5-methoxy-phenyl)-5-methyl-N2-[3-(2-pyrrolidin-1-yl-ethoxy)-phenyl]-pyrimidine-2,4-diamine], the IC50 on recombinant JAK2 stood at 2040 nM.

Consider `COc1cccc(Nc2nc(Nc3ccc(OCCN4CCCC4)cc3)ncc2C)c1` [drawing 301, N2-(4-(2-(pyrrolidin-1-yl)ethoxy)phenyl)-N4-(3-methoxyphenyl)-5-methylpyrimidine-2,4-diamine Hydrochloride], for which, at recombinant JAK2, the IC50 was found to be 52.8 nM.

As to `COc1cc(Nc2nc(Nc3ccc(OCCN4CCCC4)cc3)ncc2C)ccc1Cl` [drawing 311, N4-(4-Chloro-3-methoxy-phenyl)-5-methyl-N2-[4-(2-pyrrolidin-1-yl-ethoxy)-phenyl]-pyrimidine-2,4-diamine], at recombinant JAK2, the IC50 came out at 7.96 nM.

For the compound `Cc1cnc(Nc2ccc(OCCN3CCCC3)cc2)nc1Nc1cccc2c1OCO2` [drawing 333, N4-Benzo[1,3]dioxol-4-yl-5-methyl-N2-[4-(2-pyrrolidin-1-ylethoxy)-phenyl]-pyrimidine-2,4-diamine], at recombinant JAK2, the IC50 worked out at 16.9 nM.

In the case of `COc1cc(Nc2nc(Nc3ccc(N4CCNCC4)cc3)ncc2C)ccc1Cl` [drawing 348, N4-(4-Chloro-3-methoxy-phenyl)-5-methyl-N2-(4-piperazin-1-yl-phenyl)-pyrimidine-2,4-diamine], the IC50 on recombinant JAK2 is 6.15 nM.

`COc1cc(Nc2nc(Nc3ccc(OC4CCNCC4)cc3)ncc2C)ccc1Cl` [drawing 349, N4-(4-Chloro-3-methoxy-phenyl)-5-methyl-N2-[4-(piperidin-4-yloxy)-phenyl]-pyrimidine-2,4-diamine]: the IC50 on recombinant JAK2 worked out at 4.14 nM.

Take `Cc1cnc(Nc2ccc(N3CCN(C)CC3)cc2)nc1Nc1ccc(Cl)c2[nH]ccc12` [drawing 356, N4-(7-chloro-1H-indol-4-yl)-5-methyl-N2-(4-(4-methylpiperazin-1-yl)phenyl)pyrimidine-2,4-diamine]: the IC50 at recombinant JAK2 came to 5.36 nM.

Consider `Cc1cnc(Nc2ccc(N3CCN(C)CC3)cc2)nc1Nc1cc(C)c(Cl)c(C)c1` [drawing 361, N4-(4-chloro-3,5-dimethylphenyl)-5-methyl-N2-(4-(4-methylpiperazin-1-yl)phenyi)pyrimidine-2,4-diamine Hydrochloride], for which the IC50 at recombinant JAK2 was found to be 38 nM.

Regarding `Cc1ccc(Nc2nc(Nc3ccc(N4CCN(C)CC4)cc3)ncc2C)cc1C` [drawing 459, 5-methyl-N4-(3,4-dimeihylphenyl)-N2-(4-(4-methylpiperazin-1-yl)phenyl)pyrimidine-2,4-diamine Hydrochloride], the IC50 at recombinant JAK2 worked out at 16.6 nM.

On to `Cc1cn(-c2cc(NC(=O)c3ccc(C)c(Nc4nccc(-c5cccnc5)n4)c3)cc(C(F)(F)F)c2)cn1` [nilotinib], for which the “concentrations inhibiting growth of Ba/F3 cells harboring FIP1L1-PDFGRA-T674I” value in series [4] is reported as “nanomolar concentrations”.
